Test results from paper PMC3705312, “Extracts, Anthocyanins and Procyanidins from Aronia melanocarpa as Radical Scavengers and Enzyme Inhibitors” (Nutrients, 2013).
Where two headings read alike, the source gives them in different places.

Tests used:
XO from bovine milk = molecular target: T1, XO from bovine milk (Bos taurus, UniProt P80457); test: Inhibition of xanthine oxidase (XO), hypoxanthine as substrate; format: biochemical; conditions: average ± SD
T1 construct: purchased Sigma-Aldrich; host or cells: bovine milk
T1 sequence (P80457 whole entry): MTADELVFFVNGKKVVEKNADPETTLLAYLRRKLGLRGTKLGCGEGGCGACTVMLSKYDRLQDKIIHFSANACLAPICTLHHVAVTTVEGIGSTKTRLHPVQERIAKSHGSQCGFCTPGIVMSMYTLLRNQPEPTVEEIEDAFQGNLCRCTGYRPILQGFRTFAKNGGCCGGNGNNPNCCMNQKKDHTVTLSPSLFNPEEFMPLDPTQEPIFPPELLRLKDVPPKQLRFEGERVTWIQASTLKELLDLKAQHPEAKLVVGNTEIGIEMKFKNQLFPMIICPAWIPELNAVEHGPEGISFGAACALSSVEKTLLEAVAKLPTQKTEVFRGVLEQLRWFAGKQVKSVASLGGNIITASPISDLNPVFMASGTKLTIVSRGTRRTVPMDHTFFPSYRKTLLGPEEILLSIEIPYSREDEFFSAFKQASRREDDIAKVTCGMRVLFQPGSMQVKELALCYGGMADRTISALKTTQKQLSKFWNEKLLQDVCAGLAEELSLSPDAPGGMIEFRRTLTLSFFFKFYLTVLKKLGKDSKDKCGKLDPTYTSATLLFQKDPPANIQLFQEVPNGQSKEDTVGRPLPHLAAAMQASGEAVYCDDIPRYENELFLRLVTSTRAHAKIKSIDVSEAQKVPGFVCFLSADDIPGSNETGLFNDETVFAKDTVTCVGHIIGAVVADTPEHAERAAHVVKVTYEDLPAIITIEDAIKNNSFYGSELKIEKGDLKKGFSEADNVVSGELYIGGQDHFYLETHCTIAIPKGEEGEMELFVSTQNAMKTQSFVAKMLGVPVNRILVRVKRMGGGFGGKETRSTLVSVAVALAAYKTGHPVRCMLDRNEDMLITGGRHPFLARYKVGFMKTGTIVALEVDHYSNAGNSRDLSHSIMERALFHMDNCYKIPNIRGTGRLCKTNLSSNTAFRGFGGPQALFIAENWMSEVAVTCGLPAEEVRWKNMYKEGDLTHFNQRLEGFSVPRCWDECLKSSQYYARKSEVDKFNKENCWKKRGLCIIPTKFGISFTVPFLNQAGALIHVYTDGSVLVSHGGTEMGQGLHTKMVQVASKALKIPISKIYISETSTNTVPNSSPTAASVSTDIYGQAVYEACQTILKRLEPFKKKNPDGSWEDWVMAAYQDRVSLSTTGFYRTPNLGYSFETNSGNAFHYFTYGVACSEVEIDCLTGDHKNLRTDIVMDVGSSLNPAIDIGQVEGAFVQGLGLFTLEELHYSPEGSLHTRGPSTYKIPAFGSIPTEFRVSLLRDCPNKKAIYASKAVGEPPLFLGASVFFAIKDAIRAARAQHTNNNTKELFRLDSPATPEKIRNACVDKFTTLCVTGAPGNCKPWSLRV
Description: (§1) Procyanidin B2 and B5 reference compounds were obtained from Plant Polyphenols LLC (Boyce, LA, USA). All other reagents were of the highest purity available.
The XO inhibitory activity with hypoxanthine as the substrate was measured spectrophotometrically based on the procedure of Noro et al., with some modifications. The assay mixture consisting of 50 µL of test compound (dissolved in DMSO or MeOH) or (for blanks) DMSO or MeOH alone, 1.85 mL of 50 mM sodium-potassium phosphate buffer (pH = 7.5) and 100 µL of enzyme solution (1.8 U/mL in 50 mM sodium-potassium phosphate buffer, pH = 7.5) was prepared immediately before use. Substrate solution (1.0 mL, 20 µg/mL hypoxanthine in distilled water) was added. The mixture was stirred, and the increase in absorbance at 290 nm was measured over a period of 5 min. Percent enzyme inhibition was calculated as 100 × [(∆A1 − ∆A2)/∆A1], where ∆A1 and ∆A2 are values for the increase in A290 for the sample without test substance and with test substance, respectively.

[1] = molecular target: T2, α-glucosidase from baker's yeast (Saccharomyces cerevisiae, UniProt P53341); test: biochemical; conditions: 15 min, pH 7.0, average ± SD, triplicate
T2 construct: purchased Sigma-Aldrich
T2 sequence (P53341 whole entry): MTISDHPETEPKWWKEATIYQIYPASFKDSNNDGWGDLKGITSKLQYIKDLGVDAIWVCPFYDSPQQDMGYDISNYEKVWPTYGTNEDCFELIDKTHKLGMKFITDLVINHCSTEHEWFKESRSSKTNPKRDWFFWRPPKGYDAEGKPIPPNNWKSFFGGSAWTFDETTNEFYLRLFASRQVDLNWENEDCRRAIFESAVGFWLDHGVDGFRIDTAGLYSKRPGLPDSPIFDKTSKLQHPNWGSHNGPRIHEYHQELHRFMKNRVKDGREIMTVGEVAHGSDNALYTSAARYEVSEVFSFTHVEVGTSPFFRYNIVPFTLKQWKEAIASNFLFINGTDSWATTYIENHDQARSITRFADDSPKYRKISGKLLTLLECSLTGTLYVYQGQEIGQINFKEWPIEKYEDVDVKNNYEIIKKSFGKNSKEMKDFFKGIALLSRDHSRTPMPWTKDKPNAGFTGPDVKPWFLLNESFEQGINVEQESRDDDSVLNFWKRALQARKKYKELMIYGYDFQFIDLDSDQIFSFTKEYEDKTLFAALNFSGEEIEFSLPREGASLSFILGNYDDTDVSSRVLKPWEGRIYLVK
Description: as §1
The α-glucosidase inhibitory activity was determined by a slight modification of the procedure reported by Matsui et al.. The enzyme solution was set at 800 mU/mL of α-glucosidase in a 50 mM phosphate buffer (pH = 7.0) containing 100 mM sodium chloride. For each assay, 20 µL of the test solution in DMSO or MeOH and 80 µL of the enzyme solution were preincubated at 37 °C for 5 min. The reaction was started by adding 1.9 mL of substrate solution (0.7 mM PNP-G in the buffer), and the solution was then incubated at 37 °C for 15 min. After the reaction had been stopped by adding 2.0 mL of a 0.5 M Tris solution, the absorbance of PNP released from PNP-G at 400 nm was measured. Percent enzyme inhibition was calculated as 100 × (AB − AS)/(AB), where AB and AS represent the absorbance of the blank and sample, respectively.

[2] = Scavenging of the diphenylpicrylhydrazyl (DPPH) radical; conditions: average ± SD; for DPPH % scavenging at 10.4 µg/mL: sample concentration 10.4 µg/mL, 5 min, values marked ^; for DPPH IC50 (concentration to give 50% scavenging): 5 min reaction, A517, values marked #, triplicate
Description: Scavenging activity towards the DPPH radical was carried out as previously described [18]. Briefly, to 2.95 mL of a methanolic solution of DPPH (A517 1.0), 50 µL of the test compound (dissolved in DMSO or MeOH) was added. The mixture was stirred, and the decrease in UV absorbance at 517 nm was measured over a period of 5 min. Percent radical scavenging was calculated as 100 × (Astart − Aend)/(Astart), where Astart is the absorbance before addition of the test compound and Aend is the absorbance value after 5 min of reaction time. Values were corrected for absorbance of the test substances.

15-LO from soybeans = molecular target: T3, 15-LO from soybeans (Glycine max, UniProt P08170); test: Inhibition of 15-lipoxygenase (15-LO); format: biochemical, soybean; conditions: borate buffer pH 9.00, average ± SD, triplicate
T3 construct: purchased Sigma-Aldrich
T3 sequence (P08170 1-839): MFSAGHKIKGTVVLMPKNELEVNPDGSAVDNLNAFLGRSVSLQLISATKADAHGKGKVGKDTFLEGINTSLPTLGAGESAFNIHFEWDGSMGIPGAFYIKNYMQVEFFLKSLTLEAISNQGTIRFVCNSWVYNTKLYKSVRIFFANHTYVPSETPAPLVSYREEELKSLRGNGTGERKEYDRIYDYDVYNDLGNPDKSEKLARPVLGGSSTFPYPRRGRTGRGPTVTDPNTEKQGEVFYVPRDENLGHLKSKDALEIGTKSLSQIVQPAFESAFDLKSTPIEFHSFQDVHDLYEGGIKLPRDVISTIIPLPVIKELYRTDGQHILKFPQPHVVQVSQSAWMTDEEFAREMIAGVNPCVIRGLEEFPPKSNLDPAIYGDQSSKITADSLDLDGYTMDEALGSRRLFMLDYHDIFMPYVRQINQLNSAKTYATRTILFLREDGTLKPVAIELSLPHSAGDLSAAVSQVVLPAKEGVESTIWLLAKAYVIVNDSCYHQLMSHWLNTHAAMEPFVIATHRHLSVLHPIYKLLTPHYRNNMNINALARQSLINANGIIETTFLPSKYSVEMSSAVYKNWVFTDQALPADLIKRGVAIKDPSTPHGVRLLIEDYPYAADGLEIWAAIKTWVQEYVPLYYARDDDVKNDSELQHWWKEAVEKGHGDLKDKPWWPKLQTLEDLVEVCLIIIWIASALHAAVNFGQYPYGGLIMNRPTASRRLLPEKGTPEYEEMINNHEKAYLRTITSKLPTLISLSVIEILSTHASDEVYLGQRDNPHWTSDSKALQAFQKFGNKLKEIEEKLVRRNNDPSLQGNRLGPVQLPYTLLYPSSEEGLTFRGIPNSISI

[3] = 37 °C, read-out: α-Glucosidase IC50 (converted)
[4] = linoleic acid 134 µM, read-out: 15-Lipoxygenase IC50 (converted)
[5] = read-out: Xanthine oxidase % inhibition at a concentration of 42 µg/mL, 42 µg/mL

OCC1OC(Oc2cc3c(O)cc(O)cc3[o+]c2-c2ccc(O)c(O)c2)C(O)C(O)C1O (centres unmarked) [Compound 1, cyanidin 3-galactoside]
inhibition at 17 µg/mL (XO from bovine milk; read-out: Xanthine oxidase % inhibition at a concentration of 17 µg/mL, 17 µg/mL): 11.9 ± 4.4% | IC50 [1, 3]: 3.43 µM | DPPH % scavenging at 10.4 µg/mL [2]: 39.0 ± 2.9 ^^ % | IC50 (15-LO from soybeans; [4]): 159 µM

OCC1OC(Oc2cc3c(O)cc(O)cc3[o+]c2-c2ccc(O)c(O)c2)C(O)C(O)C1O (centres unmarked) [Compound 2, cyanidin 3-glucoside]
Xanthine oxidase % inhibition at a concentration of 17 µg/mL (XO from bovine milk): 20.9 ± 3.4% | IC50 [1, 3]: 1.94 µM | DPPH % scavenging at 10.4 µg/mL [2]: 37.0 ± 0.9 ^^ % | IC50 (15-LO from soybeans; [4]): 163 µM

Oc1cc(O)c2cc(OC3OCC(O)C(O)C3O)c(-c3ccc(O)c(O)c3)[o+]c2c1 (centres unmarked) [Compound 3, cyanidin 3-arabinoside]
Xanthine oxidase % inhibition at a concentration of 17 µg/mL (XO from bovine milk): 39.1 ± 2.1% | IC50 [1, 3]: 0.882 µM | DPPH % scavenging at 10.4 µg/mL [2]: 40.0 ± 0.4 ^^ % | IC50 (15-LO from soybeans; [4]): 140 µM

Oc1cc(O)c2cc(OC3OCC(O)C(O)C3O)c(-c3ccc(O)c(O)c3)[o+]c2c1 (centres unmarked) [Compound 4, cyanidin 3-xyloside]
Xanthine oxidase % inhibition at a concentration of 17 µg/mL (XO from bovine milk): 11.4 ± 2.8% | IC50 [1, 3]: 13.1 µM | DPPH % scavenging at 10.4 µg/mL [2]: 25.0 ± 5.0 ^^ % | IC50 (15-LO from soybeans; [4]): > 198 µM

Oc1cc(O)c2c(c1)O[C@H](c1ccc(O)c(O)c1)[C@H](O)[C@H]2c1c(O)cc(O)c2c1O[C@H](c1ccc(O)c(O)c1)[C@H](O)C2 [Compound 5, procyanidin B2]
inhibition at 42 µg/mL (XO from bovine milk; 42 µg/mL, read-out: Xanthine oxidase % inhibition at a concentration of 42 µg/mL): 12.7 ± 2.8% | IC50 ([1]; α-Glucosidase IC50, 37 °C): 8.12 µM | DPPH IC50 (concentration to give 50% scavenging) [2]: 4.7 ± 0.3 ^# µg/mL | IC50 (15-LO from soybeans; 15-Lipoxygenase IC50, linoleic acid 134 µM): 113 µM

Oc1cc(O)c2c(c1)O[C@H](c1ccc(O)c(O)c1)[C@H](O)[C@H]2c1c(O)cc2c(c1O)C[C@@H](O)[C@@H](c1ccc(O)c(O)c1)O2 [Compound 6, epi-(4β→6)-epi (B5)]
inhibition at 42 µg/mL (XO from bovine milk; [5]): 6.6 ± 0.7% | IC50 [1, 3]: 9.51 µM | DPPH IC50 (concentration to give 50% scavenging) [2]: 5.2 ± 0.1 ^# µg/mL | IC50 (15-LO from soybeans; [4]): 125 µM

Oc1cc(O)c2c(c1)O[C@H](c1ccc(O)c(O)c1)[C@H](O)[C@H]2c1c(O)cc(O)c2c1O[C@H](c1ccc(O)c(O)c1)[C@H](O)[C@H]2c1c(O)cc(O)c2c1O[C@H](c1ccc(O)c(O)c1)[C@H](O)C2 [Compound 7, epi-(4β→8)-epi-(4β→8)-epi (C1)]
inhibition at 42 µg/mL (XO from bovine milk; [5]): 15.5 ± 1.5% | IC50 ([1]; α-Glucosidase IC50, 37 °C): 4.38 µM | DPPH IC50 (concentration to give 50% scavenging) [2]: 3.2 ± 0.1 ^# µg/mL | IC50 (15-LO from soybeans; [4]): 66.5 µM

O=c1c(O)c(-c2ccc(O)c(O)c2)oc2cc(O)cc(O)c12 [Quercetin, quercetin, reference compound]
DPPH IC50 (concentration to give 50% scavenging) [2]: 3.0 ± 0.2 ^# µg/mL
